Where a name gives a salt, the structure may show the parent alone.

This assay has as its target T1, SGK1 (Homo sapiens, UniProt O00141).
T1 sequence (O00141 1-431): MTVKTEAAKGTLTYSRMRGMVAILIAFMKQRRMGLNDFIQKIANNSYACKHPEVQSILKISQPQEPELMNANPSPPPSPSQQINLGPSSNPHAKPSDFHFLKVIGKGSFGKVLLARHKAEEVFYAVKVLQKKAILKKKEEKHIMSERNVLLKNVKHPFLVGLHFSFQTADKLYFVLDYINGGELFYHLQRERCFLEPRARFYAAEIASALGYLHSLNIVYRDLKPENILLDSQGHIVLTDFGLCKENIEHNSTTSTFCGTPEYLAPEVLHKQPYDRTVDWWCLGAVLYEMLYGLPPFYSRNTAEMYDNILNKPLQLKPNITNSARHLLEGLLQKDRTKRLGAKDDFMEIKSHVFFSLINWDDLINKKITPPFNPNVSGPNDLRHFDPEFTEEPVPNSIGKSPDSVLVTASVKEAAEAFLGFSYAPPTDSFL
Description: SGK1 inhibition Assay B (Echo mass spectrometry of phosphorylated peptide product). The format is biochemical. Conditions: 60 min at room temperature.
With `Cc1cc(-c2cc(N3CCC[C@@H](NC(=O)c4cccc(N5CC6(C5)CN(C(C)C)C6)n4)C3)c3c(N)ncnn23)ccc1-n1cnnn1` [Example 822], the IC50 (in general, the concentration that gives 50% inhibition) is 4 nM.
Molecule “N—((R)-1-(4-amino-7-(5-fluoro-1-(2-methoxyethyl)-6-oxo-1,6-dihydropyridin-3-yl)pyrrolo[2,1-f][1,2,4]triazin-5-yl)piperidin-3-yl)-5-chloro-3-(((1R,3s,5S)-8-methyl-8-azabicyclo[3.2.1]octan-3-yl)oxy)thiophene-2-carboxamide [Example 974]” returned an IC50 of 1 nM.
`CC(C)N1CC2CCC1CC2Oc1cc(Cl)sc1C(=O)N[C@@H]1CCCN(c2cc(-c3ccc(-n4cnnn4)nc3)n3ncnc(N)c23)C1` (stereo partly drawn) [Example 989, N—((R)-1-(7-(6-(1H-tetrazol-1-yl)pyridin-3-yl)-4-aminopyrrolo[2,1-f][1,2,4]triazin-5-yl)piperidin-3-yl)-5-chloro-3-((2-isopropyl-2-azabicyclo[2.2.2]octan-5-yl)oxy)thiophene-2-carboxamide] yielded an IC50 of 0.9 nM.
With `CN1CCN(c2nccc(C(=O)N[C@@H]3CCCN(c4cc(-c5ccc(-n6cnnn6)c(F)c5)n5ncnc(N)c45)C3)n2)CC1` [Example 849, (R)-N-(1-(4-amino-7-(3-fluoro-4-(1H-tetrazol-1-yl)phenyl)pyrrolo[2,1-f][1,2,4]triazin-5-yl)piperidin-3-yl)-2-(4-methylpiperazin-1-yl)pyrimidine-4-carboxamide] the figure was 2 nM.
The molecule `Cc1cc(O[C@@H]2C[C@H]3CC[C@@H](C2)N3C)c(C(=O)N[C@@H]2CCCN(c3cc(-c4cnc(-n5cnnn5)c(F)c4)n4ncnc(N)c34)C2)s1` [Example 845, N-((R)-1-(4-amino-7-(5-fluoro-6-(1H-tetrazol-1-yl)pyridin-3-yl)pyrrolo[2,1-f][1,2,4]triazin-5-yl)piperidin-3-yl)-5-methyl-3-(((1R,3s,5S)-8-methyl-8-azabicyclo[3.2.1]octan-3-yl)oxy)thiophene-2-carboxamide, TFA salt] showed an IC50 of 3 nM.
The molecule `COC[C@@H](C)NC1CCC(Oc2nc(C)sc2C(=O)N[C@@H]2CCCN(c3cc(-c4ccc(C(N)=O)c(F)n4)n4ncnc(N)c34)C2)CC1` (stereo partly drawn) [Example 1040] displayed an IC50 of 1.7 nM.
With `[2H]C([2H])([2H])N([C@H]1CC[C@@H](Oc2nc(C)sc2C(=O)N[C@@H]2CCCN(c3cc(C4=CC(=O)OC4)n4ncnc(N)c34)C2)CC1)C([2H])([2H])[2H]` [Example 1004, N—((R)-1-(4-amino-7-(5-oxo-2,5-dihydrofuran-3-yl)pyrrolo[2,1-f][1,2,4]triazin-5-yl)piperidin-3-yl)-4-(((1S,4S)-4-(bis(methyl-d3)amino)cyclohexyl)oxy)-2-methylthiazole-5-carboxamide] the figure was 0.9 nM.
With `Cc1nc(OC2CC3(CCN(C)CC3)C2)c(C(=O)N[C@@H]2CCCN(c3cc(-c4ccc(C#N)nc4)n4ncnc(N)c34)C2)s1` [Example 955, (R)—N-(1-(4-amino-7-(6-cyanopyridin-3-yl)pyrrolo[2,1-f][1,2,4]triazin-5-yl)piperidin-3-yl)-2-methyl-4-((7-methyl-7-azaspiro[3.5]nonan-2-yl)oxy)thiazole-5-carboxamide] the figure was 17 nM; with `CCC1=C(c2cc(N3CCC[C@@H](NC(=O)c4sc(C)nc4OC4CCC(N5CC(O)C5)CC4)C3)c3c(N)ncnn23)COC1=O` (single isomer, unassigned) [Example 1021], 0.7 nM.
`CNC(=O)c1ccc(-c2cc(N3CCC[C@@H](NC(=O)c4cccc(N5CC6(C5)CN(C(C)C)C6)n4)C3)c3c(N)ncnn23)cn1` [Example 820]: the IC50 was determined as 21 nM.
To `Cc1nc(O[C@@H]2CCC[C@H](N(C)C)C2)c(C(=O)N[C@@H]2CCCN(c3cc(-c4ccc(C(N)=O)c(F)c4)n4ncnc(N)c34)C2)s1` (single isomer, unassigned; isomer 1) [Example 939] belongs 0.9 nM.
With `COC[C@@H](C)NC1CCC(Oc2nc(C)sc2C(=O)N[C@@H]2CCCN(c3cc(C4=C(C)C(=O)OC4)n4ncnc(N)c34)C2)CC1` (stereo partly drawn) [Example 1008, N-((R)-1-(4-amino-7-(4-methyl-5-oxo-2,5-dihydrofuran-3-y1)pyrrolo[2,1-f][1,2,4]triazin-5-yl)piperidin-3-y1)-4-((4-(((R)-1-methoxypropan-2-yl)amino)cyclohexyl)oxy)-2-methylthiazole-5-carboxamide] the figure was 1 nM.
With `Cc1nc(O[C@H]2CC[C@]3(CCCN3)CC2)c(C(=O)N[C@@H]2CCCN(c3cc(-c4ccc(C(N)=O)c(F)c4)n4ncnc(N)c34)C2)s1` [Example 930, 4-(((5S,8r)-1-azaspiro[4.5]decan-8-yl)oxy)-N—((R)-1-(4-amino-7-(4-carbamoyl-3-fluorophenyl)pyrrolo[2,1-f][1,2,4]triazin-5-yl)piperidin-3-yl)-2-methylthiazole-5-carboxamide, TFA salt] the figure was 1 nM.
The molecule `Cc1nc(OC2CCC(N3CCC3)CC2)c(C(=O)N[C@@H]2CCCN(c3cc(C#N)n4ncnc(N)c34)C2)s1` (stereo partly drawn) [Example 1049, (R)—N-(1-(4-amino-7-cyanopyrrolo[2,1-f][1,2,4]triazin-5-yl)piperidin-3-yl)-4-((4-(azetidin-1-yl)cyclohexyl)oxy)-2-methylthiazole-5-carboxamide] showed an IC50 of 1.9 nM.
As to `CN1[C@@H]2CC[C@H]1C[C@H](Oc1cc(Cl)sc1C(=O)N[C@@H]1CCCN(c3cc(-c4ccc5c(c4)COC5=O)n4ncnc(N)c34)C1)C2` [Example 924, N—((R)-1-(4-amino-7-(1-oxo-1,3-dihydroisobenzofuran-5-yl)pyrrolo[2,1-f][1,2,4]triazin-5-yl)piperidin-3-yl)-5-chloro-3-(((1R,3s,5S)-8-methyl-8-azabicyclo[3.2.1]octan-3-yl)oxy)thiophene-2-carboxamide], the IC50 was 0.9 nM.
In the case of `CN1[C@@H]2CC[C@H]1C[C@H](Oc1cc(Cl)sc1C(=O)N[C@@H]1CCCN(c3cc(-c4ccc(C(F)(F)F)c(F)c4)n4ncnc(N)c34)C1)C2` [Example 841, N-((R)-1-(4-amino-7-(3-fluoro-4-(trifluoromethyl)phenyl)pyrrolo[2,1-f][1,2,4]triazin-5-yl)piperidin-3-yl)-5-chloro-3-(((1R,3s,5S)-8-methyl-8-azabicyclo[3.2.1]octan-3-yl)oxy)thiophene-2-carboxamide], the half-maximal inhibitory concentration (IC50) was 17 nM.
The molecule `COC(=O)N1CC=C(c2cc(N3CCC[C@@H](NC(=O)c4sc(C)nc4OC4CCN(C(C)C)CC4)C3)c3c(N)ncnn23)C1` [Example 361, Methyl (R)-3-(4-amino-5-(3-(4-((1-isopropylpiperidin-4-yl)oxy)-2-methylthiazole-5-carboxamido)piperidin-1-yl)pyrrolo[2,1-f][1,2,4]triazin-7-yl)-2,5-dihydro-1H-pyrrole-1-carboxylate] had an IC50 of 26 nM.
To `Cc1cc(O[C@@H]2C[C@H]3CC[C@@H](C2)N3C)c(C(=O)N[C@@H]2CCCN(c3cc(-c4ccc(-n5cnnn5)c(F)c4)n4ncnc(N)c34)C2)s1` [Example 847, N-((R)-1-(4-amino-7-(3-fluoro-4-(1H-tetrazol-1-yl)phenyl)pyrrolo[2,1-f][1,2,4]triazin-5-yl)piperidin-3-yl)-5-methyl-3-(((1R,3s,5S)-8-methyl-8-azabicyclo[3.2.1]octan-3-yl)oxy)thiophene-2-carboxamide, TFA salt] belongs 2 nM.
